Patent US20230398130A1, “METHODS AND COMPOSITIONS FOR DIFFERENTIATING STEM CELLS” (Massachusetts Institute of Technology, priority 2020, published 2023)

Columns and labels:
ISC-enriched organoids [1] = experiment: Primary screen, 384-well 2.5-D organoid differentiation (ENR+CD, 6 days): basal lysozyme secretion (LYZ.NS); format: cell-based, murine; conditions: for Dose.FC.LYZ.NS / Z.LYZ.NS (standard z score) / Dose.FC.LYZ.NS (log 2 fold change): primary screen; for Dose.FC.LYZ.NS: FC vs plate median; for Z.LYZ.NS: standard z score of FC; for Dose.FC.LYZ.NS (log 2 fold change): vs plate median
Excerpt: (§1) High-throughput screening.

ISC-enriched organoids [2] = experiment: Primary screen, 384-well 2.5-D organoid differentiation (ENR+CD, 6 days): carbachol-induced lysozyme secretion (LYZ.S); format: cell-based, murine; conditions: primary screen; for Dose.FC.LYZ.S: FC vs plate median; for Dose.FC.LYZ.S (log 2 fold change): vs plate median
Excerpt: as §1

ISC-enriched organoids [3] = experiment: Primary screen, 384-well 2.5-D organoid differentiation (ENR+CD, 6 days, Target Selective Inhibitor Library, vs whole-plate median): ATP (CellTiter-Glo 3D, CTG); conditions: for Dose.FC.CTG / Z.CTG (standard z score) / Dose.FC.CTG (log 2 fold change): primary screen; for Dose.FC.CTG: FC vs plate median; for Z.CTG: standard z score of FC; for Dose.FC.CTG (log 2 fold change): vs plate median

| SMILES | Dose.FC.LYZ.NS (ISC-enriched organoids [1]; Dose 0.08 uM) [log 2 fold change] | Z.LYZ.NS (ISC-enriched organoids [1]; Dose 0.08 uM) | Dose.FC.LYZ.NS (ISC-enriched organoids [1]; Dose 0.40 uM) [log 2 fold change] | Z.LYZ.NS (ISC-enriched organoids [1]; Dose 0.40 uM) | Dose.FC.LYZ.NS (ISC-enriched organoids [1]; Dose 2.00 uM) [log 2 fold change] | Z.LYZ.NS (ISC-enriched organoids [1]; Dose 2.00 uM) | Dose.FC.LYZ.NS (ISC-enriched organoids [1]; Dose 10.00 uM) [log 2 fold change] | Z.LYZ.NS (ISC-enriched organoids [1]; Dose 10.00 uM) | Dose.FC.LYZ.S (ISC-enriched organoids [2]; Dose 0.08 uM) [log 2 fold change] | Dose.FC.LYZ.S (ISC-enriched organoids [2]; Dose 0.40 uM) [log 2 fold change] | Dose.FC.LYZ.S (ISC-enriched organoids [2]; Dose 2.00 uM) [log 2 fold change] | Dose.FC.LYZ.S (ISC-enriched organoids [2]; Dose 10.00 uM) [log 2 fold change] | Dose.FC.CTG (ISC-enriched organoids [3]; Dose 0.08 uM) [log 2 fold change] | Z.CTG (ISC-enriched organoids [3]; Dose 0.08 uM) | Dose.FC.CTG (ISC-enriched organoids [3]; Dose 0.40 uM) [log 2 fold change] | Z.CTG (ISC-enriched organoids [3]; Dose 0.40 uM) | Dose.FC.CTG (ISC-enriched organoids [3]; Dose 2.00 uM) [log 2 fold change] | Z.CTG (ISC-enriched organoids [3]; Dose 2.00 uM) | Dose.FC.CTG (ISC-enriched organoids [3]; Dose 10.00 uM) [log 2 fold change] | Z.CTG (ISC-enriched organoids [3]; Dose 10.00 uM) | other results |
| --- | --- | --- | --- | --- | --- | --- | --- | --- | --- | --- | --- | --- | --- | --- | --- | --- | --- | --- | --- | --- | --- |
| C#Cc1cccc(Nc2ncnc3cc(OCCOC)c(OCCO)cc23)c1 [OSI-420] | 0.115 | 1.002 | −0.224 | −1.948 | −0.287 | −2.498 | −0.325 | −2.833 | 0.059 | −0.221 | −0.381 | −0.374 | 0.106 | 0.254 | −0.130 | −0.311 | −1.263 | −3.016 | −1.100 | −2.627 | – |
| Nc1ccc(C(=O)[O-])c(O)c1.[Na+] [Sodium 4-Aminosalicylate] | – | – | – | – | – | – | – | – | – | – | – | – | – | – | – | – | – | – | – | – | Z.LYZ.NS (standard z score) (ISC-enriched organoids [1]; Dose 0.08 uM): 0.695; Dose.FC.LYZ.NS (log 2 fold change) (ISC-enriched organoids [1]; Dose 0.08 uM): 0.080; Z.LYZ.NS (standard z score) (ISC-enriched organoids [1]; Dose 0.40 uM): 0.354; Dose.FC.LYZ.NS (log 2 fold change) (ISC-enriched organoids [1]; Dose 0.40 uM): 0.041; Z.LYZ.NS (standard z score) (ISC-enriched organoids [1]; Dose 2.00 uM): 1.354; Dose.FC.LYZ.NS (log 2 fold change) (ISC-enriched organoids [1]; Dose 2.00 uM): 0.156; Z.LYZ.NS (standard z score) (ISC-enriched organoids [1]; Dose 10.00 uM): 0.796; Dose.FC.LYZ.NS (log 2 fold change) (ISC-enriched organoids [1]; Dose 10.00 uM): 0.091; Dose.FC.LYZ.S (log 2 fold change) (ISC-enriched organoids [2]; Dose 0.08 uM): 0.162; Dose.FC.LYZ.S (log 2 fold change) (ISC-enriched organoids [2]; Dose 0.40 uM): 0.050; Dose.FC.LYZ.S (log 2 fold change) (ISC-enriched organoids [2]; Dose 2.00 uM): 0.099; Dose.FC.LYZ.S (log 2 fold change) (ISC-enriched organoids [2]; Dose 10.00 uM): 0.143; Z.CTG (standard z score) (ISC-enriched organoids [3]; Dose 0.08 uM): 0.283; Dose.FC.CTG (log 2 fold change) (ISC-enriched organoids [3]; Dose 0.08 uM): 0.119; Z.CTG (standard z score) (ISC-enriched organoids [3]; Dose 0.40 uM): 0.488; Dose.FC.CTG (log 2 fold change) (ISC-enriched organoids [3]; Dose 0.40 uM): 0.204; Z.CTG (standard z score) (ISC-enriched organoids [3]; Dose 2.00 uM): 0.092; Dose.FC.CTG (log 2 fold change) (ISC-enriched organoids [3]; Dose 2.00 uM): 0.038; Z.CTG (standard z score) (ISC-enriched organoids [3]; Dose 10.00 uM): 0.590; Dose.FC.CTG (log 2 fold change) (ISC-enriched organoids [3]; Dose 10.00 uM): 0.247 |
| C[C@]1(O)C[C@@H](c2nc(-c3ccc4ccc(-c5ccccc5)nc4c3)c3c(N)nccn32)C1 [OSI-906 (Linsitinib)] | 0.013 | 0.110 | −0.093 | −0.806 | −0.216 | −1.882 | −0.229 | −1.996 | −0.026 | −0.119 | −0.288 | −0.328 | −0.324 | −0.775 | −0.158 | −0.377 | −0.277 | −0.661 | −0.391 | −0.934 | – |
| COc1cc(OC)c(NC(=O)Nc2cc(C)on2)cc1Cl [PNU-120596] | 0.108 | 0.944 | −0.011 | −0.098 | 0.068 | 0.594 | −0.060 | −0.525 | 0.058 | 0.081 | 0.065 | −0.049 | −0.079 | −0.188 | 0.085 | 0.204 | 0.114 | 0.271 | 0.138 | 0.330 | – |
